Results on 14 compounds are retold here after ChEMBL document CHEMBL1147840, “Synthesis and bioactivity of 4-alkyl(aryl)thioquinazoline derivatives” (Bioorg Med Chem Lett, 2007).

Holding throughout (format): functional, cell-based
Test [1] concerns PC-3. Description: Antitumor activity against human PC3 cells by MTT method.
In test [2] the test system is Bcap37. In words: Antitumor activity against human Bcap37 cells by MTT method. On the technique in general: Tetrazolium dyes change colour on reduction, which living cells bring about.
Test [3] has as its system BGC-823. Description: Antitumor activity against human BGC823 cells by MTT method.

A word on the IC50: it is the concentration at which inhibition is half-maximal. Turning to `COc1cccc(Sc2ncnc3c(OC)c(OC)c(OC)cc23)c1`, the IC50 was determined as 8.1 µM in test [1], 45.6 µM in test [2] and 53.2 µM in test [3].
For `C=CCSc1ncnc2ccc(I)cc12` the same measures were 28.8 µM, 39.1 µM and 33.2 µM.
For `COc1cc(-c2nnc(Sc3ncnc4ccc(I)cc34)s2)cc(OC)c1OC` the same measures were 12.2 µM, 21 µM and 19 µM.
For `COc1cc(-c2nnc(Sc3ncnc4ccccc34)s2)cc(OC)c1OC`, in that order: 19 µM, 50.9 µM and 61.2 µM.
With `CCCSc1ncnc2ccc(I)cc12`, the results for the IC50 in test [1], in test [2] and in test [3] were 40.9 µM, 42.1 µM and 29 µM, respectively.
For `COc1cc(-c2nnc(Sc3ncnc4c(OC)c(OC)c(OC)cc34)s2)cc(OC)c1OC`, in that order: 8.7 µM, 34.7 µM and 31.2 µM.
For `CCSc1ncnc2ccc(I)cc12` the same measures were 38.9 µM, 39 µM and 31.1 µM.
For `COc1cc2ncnc(Nc3cccc(Br)c3)c2cc1OC` the same measures were 13.7 µM, 8.9 µM and 6.9 µM.
Regarding `COc1cc(-c2nnc(Sc3ncnc4ccc(I)cc34)o2)cc(OC)c1OC`, the figures for the IC50 in test [1], in test [2] and in test [3] were 8.9 µM, 31 µM and 28.9 µM, respectively.
For `C=CCSc1ncnc2ccccc12`, in that order: 48 µM, 67.9 µM and 78.1 µM.
For `CCCCSc1ncnc2ccc(I)cc12` the same measures were 32.1 µM, 31 µM and 29 µM.
For `COc1cccc(Sc2ncnc3ccccc23)c1` the same measures were 23.1 µM, 56.7 µM and 45.6 µM.
For `COc1cc(-c2nnc(Sc3ncnc4c(OC)c(OC)c(OC)cc34)o2)cc(OC)c1OC`, the IC50 is 1.8 µM in test [1], 20.9 µM in test [2] and 39 µM in test [3].
For `COc1cc(-c2nnc(Sc3ncnc4ccccc34)o2)cc(OC)c1OC` the same measures were 5.6 µM, 23.4 µM and 34.5 µM.
